Here are results for 37 molecules from ChEMBL document CHEMBL1138587, “A new class of 5-HT2B antagonists possesses favorable potency, selectivity, and rat pharmacokinetic properties” (Bioorg Med Chem Lett, 2009).

Structures are written as SMILES. In brackets after ≈: the same amount, converted by molar mass. Activity calls are given as the source filed them. The rule behind the calls is not given here. Bounds are passed on as bounds.

Data set [1] can be described thus: Protein binding in plasma by dialysis method. The data set is classed as ADME, cell-free. The following applies: read-out: PPB (converted).
For data set [2], the target named is 5-hydroxytryptamine receptor 2A (Homo sapiens) (UniProt P28223). Briefly: Antagonist activity at 5-HT2A receptor up to 10 uM by FLIPR assay. The data set is classed as functional.
The nature of data set [3]: Cmax in Sprague-Dawley rat 10 mg/kg, po. To be noted: in vivo. Also on record: dose 10 mg/kg, route oral. The data set is classed as ADME, organism-based.
Data set [4] addresses T1, 5-hydroxytryptamine receptor 2B (Homo sapiens, UniProt P41595). Briefly: Antagonist activity at 5-HT2B receptor expressed in CHOK1 cells assessed as inhibition of serotonin-induced intracellular Ca2+ flux by aequorin luminescence assay. The class given is functional, cell-based, CHO-K1. In general terms: A change in cytosolic calcium serves as a functional read-out for many receptors and channels.

Data set [5] can be described thus: Selectivity for 5-HT2B receptor over 5-HT2C receptor.
Data set [6] concerns the target T2, 5-hydroxytryptamine receptor 2C (Homo sapiens) (UniProt P28335).
T2 sequence (whole entry): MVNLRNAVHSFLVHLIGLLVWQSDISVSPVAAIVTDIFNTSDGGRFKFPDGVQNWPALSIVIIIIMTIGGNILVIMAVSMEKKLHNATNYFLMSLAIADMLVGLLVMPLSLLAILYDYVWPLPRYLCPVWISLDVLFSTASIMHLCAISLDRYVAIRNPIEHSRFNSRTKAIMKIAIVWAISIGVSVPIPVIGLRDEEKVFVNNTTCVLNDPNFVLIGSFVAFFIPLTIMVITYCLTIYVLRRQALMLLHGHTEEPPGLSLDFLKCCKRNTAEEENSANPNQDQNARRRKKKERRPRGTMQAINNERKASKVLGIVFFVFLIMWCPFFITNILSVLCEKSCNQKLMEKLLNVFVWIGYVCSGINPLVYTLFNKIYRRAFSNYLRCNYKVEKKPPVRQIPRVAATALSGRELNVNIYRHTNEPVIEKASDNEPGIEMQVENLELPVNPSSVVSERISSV
Nature of the data set: Antagonist activity at 5-HT2C receptor up to 10 uM by FLIPR assay. The data set is classed as functional.

Data set [7] in a line: Aqueous solubility of compound at pH 7.4. The data set is classed as physicochemical. To be noted: aqueous medium.
Data set [8] is described as follows: AUC in Sprague-Dawley rat at 10 mg/kg, po. The following applies: plasma. Set-up: dose 10 mg/kg, route oral. The data set is classed as ADME, organism-based.
The nature of data set [9]: Oral bioavailability in Sprague-Dawley rat. The class given is ADME, organism-based. The following applies: in vivo.
In data set [10] the target is T1, 5-hydroxytryptamine receptor 2B. Briefly: Antagonist activity at 5-HT2B receptor expressed in CHOK1 cells assessed as inhibition of serotonin-induced intracellular Ca2+ flux by aequorin luminescence assay in presence of 4% human serum albumin. The data set is classed as functional, cell-based, CHO-K1.
A short description of data set [11]: Inhibition of dopamine D4.2 receptor at 10 uM.
A short description of data set [12]: Selectivity for 5-HT2B receptor over 5-HT2A receptor.
A short description of data set [13]: AUC in Wistar rat at 10 mg/kg, po. To be noted: plasma. Also on record: dose 10 mg/kg, route oral. The class given is ADME, organism-based.
Data set [14] is described as follows: Oral bioavailability in Wistar rat. The class given is ADME, organism-based. The following applies: in vivo.
The nature of data set [15]: Cmax in Wistar rat 10 mg/kg, po. The data set is classed as ADME, organism-based. Set-up: dose 10 mg/kg, route oral. To be noted: in vivo.
Data set [16] has as its system Rattus norvegicus. Briefly: Hepatic blood flow in Wistar rat at 1 mg/kg, iv. The following applies: in vivo. Also on record: dose 1 mg/kg, route intravenous. The data set is classed as ADME, organism-based, Liver.

Broadly, the Cmax is the highest concentration seen after dosing. As a reminder, the IC50 is the concentration at which inhibition is half-maximal. What is called solubility is how much of the substance goes into solution per volume. One may read the AUC as concentration integrated over time. By inhibition is commonly meant the drop in the measured response relative to a control, in per cent. A lower inhibition goes with a weak effect.

T1 sequence (P41595 whole entry): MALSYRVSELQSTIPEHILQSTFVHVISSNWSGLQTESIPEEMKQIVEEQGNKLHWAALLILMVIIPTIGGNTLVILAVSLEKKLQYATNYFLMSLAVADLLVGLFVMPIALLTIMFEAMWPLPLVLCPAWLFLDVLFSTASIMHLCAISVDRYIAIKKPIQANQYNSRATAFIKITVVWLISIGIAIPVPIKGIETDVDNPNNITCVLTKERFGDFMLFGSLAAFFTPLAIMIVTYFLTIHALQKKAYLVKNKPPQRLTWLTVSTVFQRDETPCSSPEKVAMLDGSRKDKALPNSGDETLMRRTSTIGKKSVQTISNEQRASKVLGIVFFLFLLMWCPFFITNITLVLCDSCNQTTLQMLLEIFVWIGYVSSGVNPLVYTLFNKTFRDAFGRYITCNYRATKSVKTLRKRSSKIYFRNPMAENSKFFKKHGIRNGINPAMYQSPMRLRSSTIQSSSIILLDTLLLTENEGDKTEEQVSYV
Sequence of 5-hydroxytryptamine receptor 2A (Homo sapiens) (P28223 whole entry): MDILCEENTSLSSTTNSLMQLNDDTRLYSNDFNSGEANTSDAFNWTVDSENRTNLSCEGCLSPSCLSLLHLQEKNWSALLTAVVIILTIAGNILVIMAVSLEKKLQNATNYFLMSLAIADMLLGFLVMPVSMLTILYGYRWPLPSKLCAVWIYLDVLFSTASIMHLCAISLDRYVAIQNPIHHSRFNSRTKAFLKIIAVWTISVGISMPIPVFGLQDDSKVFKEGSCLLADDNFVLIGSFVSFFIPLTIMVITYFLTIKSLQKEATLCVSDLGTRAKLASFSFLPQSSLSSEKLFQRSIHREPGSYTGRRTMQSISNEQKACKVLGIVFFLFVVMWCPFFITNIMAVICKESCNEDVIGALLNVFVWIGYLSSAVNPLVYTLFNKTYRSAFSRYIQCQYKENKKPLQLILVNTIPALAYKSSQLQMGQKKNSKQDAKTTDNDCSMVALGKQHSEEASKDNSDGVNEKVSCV

For `O=C(c1ccc(-c2ccccc2)cc1)N1CCC(c2nc3ccccc3[nH]2)CC1`, the fraction unbound in data set [1] was 0.001. Moreover, the outcome in [2] and in data set [6] was inactive. This molecule yielded a Cmax in data set [3] of 5000 ng/mL. The IC50 in data set [4] was determined as 2.4 nM; in data set [10], 1200 nM. Besides, the Selectivity ratio in data set [5] and in [12] was above 10000 in each case. The amount in solution in data set [7] (solubility) came to 3 µg/mL (≈ 7.86 µM). In data set [8], this molecule showed an area under the curve (AUC) of 25000 ng·h/mL. In addition, the bioavailability in data set [9] came to 130%. This molecule also had an inhibition in [11] of 99%.

For the molecule `c1ccc(-c2ccc(CN3CCC(c4nc5ccccc5[nH]4)CC3)cc2)cc1`, the 50% inhibitory concentration (IC50) in data set [4] came to 65 nM; in data set [10] it was 7300 nM.

Turning to `O=C(c1ccc(N2CCCCC2)cc1)N1CCC(c2nc3ccccc3[nH]2)CC1`, the half-maximal inhibitory concentration (IC50) in data set [4] worked out at 48 nM; in data set [10], 12000 nM.

Take `O=C(c1ccc(-c2ccc(F)cc2)cc1)N1CCC(c2ncc[nH]2)CC1`: in data set [3], the concentration peaked (Cmax) at 1700 ng/mL. In addition, the area under the curve (AUC) in data set [8] was determined as 14000 ng·h/mL. Also, in [9], the bioavailability was 100%.

Regarding `COc1ccc(-c2ccc(C(=O)N3CCC(c4nc5ccccc5[nH]4)CC3)cc2)cc1`, the values for the half-maximal inhibitory concentration (IC50) in data set [4] and in data set [10] were 3.4 nM and 3200 nM, respectively.

Regarding `O=C(c1ccc(-c2ccccc2)cc1)N1CC(c2nc3ccccc3[nH]2)C1`, the half-maximal inhibitory concentration (IC50) is 150 nM in data set [4] and above 2800 nM in data set [10].

Take `O=C(c1ccc(-c2ccccc2)cc1)N1CCC(Cc2ncc[nH]2)CC1`: the IC50 in [4] turned out to be 0.4 nM; in data set [10], 14 nM.

`Cc1cc2c(cc1Cl)N(C(=O)Nc1cccc3ncccc13)CC2`: the figures for the IC50 in [4] and in [10] were 13 nM and 64 nM, respectively. The figures for the Selectivity ratio in data set [5] and in data set [12] were 0.5 and 7, respectively.

Regarding `O=C(c1cnc(-c2ccccc2)nc1)N1CCC(c2nc3ccccc3[nH]2)CC1`, the fraction unbound in data set [1] is 0.009. Besides, the IC50 came to 2.5 nM in data set [4] and 710 nM in data set [10].

As for `O=C(c1ccc(-c2ccccc2)cn1)N1CCC(c2nc3ccccc3[nH]2)CC1`, the concentration for half-maximal inhibition (IC50) was 12 nM in data set [4] and above 2400 nM in [10].

`O=C(C1CCC(c2ccccc2)CC1)N1CCC(c2nc3ccccc3[nH]2)CC1` (centres undefined): the IC50 is 610 nM in [4] and above 20000 nM in data set [10].

For the molecule `O=C(c1ccc(N2CCOCC2)cc1)N1CCC(c2nc3ccccc3[nH]2)CC1`, the IC50 in [4] is 2300 nM; in data set [10], above 26000 nM.

`NC(=O)C1CCN(C(=O)c2ccc(-c3ccccc3)cc2)CC1`: the IC50 in data set [4] was above 6500 nM.

As for `O=C(c1ccc(-c2ncccn2)cc1)N1CCC(c2nc3ccccc3[nH]2)CC1`, the IC50 was 120 nM in data set [4] and above 2700 nM in data set [10].

`Cn1c(C2CCN(C(=O)c3ccc(-c4ccccc4)cc3)CC2)nc2ccccc21`: the IC50 is 80 nM in [4] and 10000 nM in [10].

With `CC(C)c1cc(-c2ccc(F)c3ccccc23)nc(N)n1`, the AUC in data set [13] turned out to be 810 ng·h/mL. In addition, the bioavailability in data set [14] came to 10%. Moreover, the fraction unbound in data set [1] is 0.001. The molecule also had a Cmax in [15] of 470 ng/mL. The values for the IC50 in [4] and in [10] were 0.7 nM and 19 nM, respectively. Moreover, the Selectivity ratio in data set [5] is 92; in [12], 2000. In data set [16], the QH stood at 29%.

`O=C(c1ccc(-c2ccccc2)cc1)N1CCC(Cc2nc3ccccc3[nH]2)CC1`: the half-inhibitory concentration (IC50) in [4] was found to be 2.3 nM; in data set [10], 300 nM.

Take `O=S(=O)(c1ccc(-c2ccccc2)cc1)N1CCC(c2ncc[nH]2)CC1`: the results for the half-inhibitory concentration (IC50) in data set [4] and in data set [10] were 0.3 nM and 32 nM, respectively.

As to `O=C(c1ccc(-c2cccnc2)cc1)N1CCC(c2nc3ccccc3[nH]2)CC1`, the figures for the IC50 in [4] and in [10] were 340 nM and above 14000 nM, respectively.

As to `O=C(c1ccc(-c2ccccc2)[nH]c1=O)N1CCC(c2nc3ccccc3[nH]2)CC1`, the values for the IC50 in data set [4] and in data set [10] were 22 nM and above 3000 nM, respectively.

In [3], `O=S(=O)(c1ccc(-c2ccc(F)cc2)cc1)N1CCC(c2ncc[nH]2)CC1` showed a Cmax of 870 ng/mL. Besides, the IC50 in [4] was 0.6 nM; in data set [10] it was 30 nM. In data set [8], the AUC came to 2300 ng·h/mL. Further, the bioavailability in data set [9] worked out at 54%.

As for `O=C(c1ccccc1)N1CCC(c2nc3ccccc3[nH]2)CC1`, the IC50 in data set [4] and in data set [10] was above 10000 nM each time.

Take `O=C(c1ccc(C2CCCCC2)cc1)N1CCC(c2nc3ccccc3[nH]2)CC1`: the figures for the IC50 in data set [4] and in data set [10] were 31 nM and 1100 nM, respectively.

Take `O=S(=O)(c1ccc(-c2ccccc2)cc1)N1CCC(Cc2nc3ccccc3[nH]2)CC1`: the IC50 in data set [4] is 1100 nM; in [10], above 23000 nM.

Consider `O=C(c1ccc(-c2ccccc2)cc1)N1CCC(c2ncc[nH]2)CC1`, for which, in [1], the fraction unbound is 0.001.

Regarding `O=C(c1ccc(-c2ccccc2)cc1)N1CCC(c2nc3ccccc3o2)CC1`, the IC50 in [4] is 1500 nM; in data set [10], above 20000 nM.

As to `O=C(c1ccc(-c2ccccc2)cc1)N1CCN(c2nc3ccccc3[nH]2)CC1`, the half-inhibitory concentration (IC50) in data set [4] was 6900 nM; in data set [10], above 25000 nM.

As for `CCOc1nc(-c2ccccc2)ncc1C(=O)N1CCC(c2nc3ccccc3[nH]2)CC1`, the concentration for half-maximal inhibition (IC50) in [4] turned out to be 6 nM; in [10], 910 nM.

For `N#Cc1cc(CN2CCC(Nc3ncnc4sc(Cl)cc34)CC2)ccc1F` [PRX-08066 FREE BASE], in data set [13], the AUC is 500 ng·h/mL. The bioavailability in data set [14] came out at 17%. For the same molecule, the fraction unbound in data set [1] was 0.01. Further, the Cmax in data set [15] worked out at 240 ng/mL. In addition, the figures for the concentration for half-maximal inhibition (IC50) in data set [4] and in data set [10] were 3.5 nM and 270 nM, respectively. The Selectivity ratio in [5] and in data set [12] was above 3000 in each case. The same molecule yielded a QH in data set [16] of 82%.

For `O=C(c1ccc(-c2ccc(OC(F)(F)F)cc2)cc1)N1CCC(c2nc3ccccc3[nH]2)CC1`, the IC50 in data set [4] was 95 nM; in data set [10], 16000 nM.

In the case of `O=C(c1ccc(Br)cc1)N1CCC(c2nc3ccccc3[nH]2)CC1`, the IC50 in data set [4] is above 13000 nM; in [10] it was above 26000 nM.

As to `COc1cc(-c2ccccc2)ccc1C(=O)N1CCC(c2nc3ccccc3[nH]2)CC1`, the 50% inhibitory concentration (IC50) stood at 4 nM in data set [4] and 1200 nM in [10].

For the molecule `O=S(=O)(c1ccc(-c2ccccc2)cc1)N1CCC(Cc2ncc[nH]2)CC1`, the IC50 was 6.5 nM in [4] and 990 nM in [10].

`O=S(=O)(c1ccc(-c2ccccc2)cc1)N1CCC(c2nc3ccccc3[nH]2)CC1`: the results for the half-maximal inhibitory concentration (IC50) in data set [4] and in data set [10] were 1.9 nM and 840 nM, respectively.

With `O=C(c1ccc(-c2ccncc2)cc1)N1CCC(c2nc3ccccc3[nH]2)CC1`, the IC50 in [4] is above 1300 nM; in [10], above 13000 nM.

Turning to `NC(=O)c1ccc(-c2ccc(C(=O)N3CCC(c4nc5ccccc5[nH]4)CC3)cc2)cc1`, the half-inhibitory concentration (IC50) is above 2400 nM in data set [4] and above 24000 nM in data set [10].

Consider `O=C(c1ccc(-c2ccc(F)cc2)cc1)N1CCC(Cc2ncc[nH]2)CC1`, for which the highest level in [3] (Cmax) was 600 ng/mL. In addition, the AUC in [8] was determined as 6500 ng·h/mL. The bioavailability in [9] is 118%.
